Patent publication US20260055079A1, “PHTHALAZINONE COMPOUNDS AS PARP7 INHIBITORS” (AZKARRA THERAPEUTICS, INC., priority 2022, published 2026)
Where two headings read alike, the source gives them in different places.

How the values were obtained:
[1] = target: PARP11 (Homo sapiens (Human), UniProt Q9NR21); assay: PASTA biochemical PARP screening assay, PARP11
[2] = target: PARP4bc (Homo sapiens, UniProt Q9UKK3); assay: PASTA biochemical PARP screening assay, PARP4bc
[3] = target: PARP15cat (Homo sapiens (Human), UniProt Q460N3); assay: PASTA biochemical PARP screening assay, PARP15cat
Sequence of PARP15cat (Q460N3 482-678): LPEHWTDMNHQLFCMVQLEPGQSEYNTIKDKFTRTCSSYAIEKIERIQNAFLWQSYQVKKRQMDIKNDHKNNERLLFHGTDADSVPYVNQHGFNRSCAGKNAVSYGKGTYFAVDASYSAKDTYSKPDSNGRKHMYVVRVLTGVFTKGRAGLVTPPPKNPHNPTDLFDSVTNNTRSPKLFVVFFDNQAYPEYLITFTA

[4] = target: PARP8 (Homo sapiens (Human), UniProt Q8N3A8); assay: PASTA biochemical PARP screening assay, PARP8
[5] = target: T1, PARP2 (Homo sapiens (Human), UniProt Q9UGN5); assay: PASTA biochemical PARP screening assay, PARP2
T1 sequence (Q9UGN5 whole entry): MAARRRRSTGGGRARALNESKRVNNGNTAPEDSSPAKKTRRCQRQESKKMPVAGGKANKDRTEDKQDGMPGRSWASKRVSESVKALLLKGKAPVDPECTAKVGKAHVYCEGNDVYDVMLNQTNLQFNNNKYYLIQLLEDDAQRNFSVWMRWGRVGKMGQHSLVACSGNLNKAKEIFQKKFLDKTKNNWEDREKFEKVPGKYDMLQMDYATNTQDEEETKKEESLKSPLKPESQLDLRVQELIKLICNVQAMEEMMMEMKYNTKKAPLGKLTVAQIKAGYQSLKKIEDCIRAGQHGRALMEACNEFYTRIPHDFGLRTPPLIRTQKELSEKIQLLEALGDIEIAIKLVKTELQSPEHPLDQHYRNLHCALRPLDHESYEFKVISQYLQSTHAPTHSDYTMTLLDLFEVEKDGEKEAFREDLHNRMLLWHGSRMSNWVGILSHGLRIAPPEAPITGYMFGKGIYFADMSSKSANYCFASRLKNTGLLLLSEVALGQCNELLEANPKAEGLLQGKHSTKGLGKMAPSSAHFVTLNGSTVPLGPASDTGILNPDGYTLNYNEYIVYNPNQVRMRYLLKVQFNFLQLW

[6] = target: T1, PARP2; assay: PARP2 biochemical assay; details: read-out: PARP2 IC50
[7] = target: PARP14wwe (Homo sapiens, UniProt Q460N5); assay: PASTA biochemical PARP screening assay, PARP14wwe
[8] = target: PARP1 (Homo sapiens (Human), UniProt P09874); assay: PASTA biochemical PARP screening assay, PARP1
Sequence of PARP1 (P09874 whole entry, species assumed): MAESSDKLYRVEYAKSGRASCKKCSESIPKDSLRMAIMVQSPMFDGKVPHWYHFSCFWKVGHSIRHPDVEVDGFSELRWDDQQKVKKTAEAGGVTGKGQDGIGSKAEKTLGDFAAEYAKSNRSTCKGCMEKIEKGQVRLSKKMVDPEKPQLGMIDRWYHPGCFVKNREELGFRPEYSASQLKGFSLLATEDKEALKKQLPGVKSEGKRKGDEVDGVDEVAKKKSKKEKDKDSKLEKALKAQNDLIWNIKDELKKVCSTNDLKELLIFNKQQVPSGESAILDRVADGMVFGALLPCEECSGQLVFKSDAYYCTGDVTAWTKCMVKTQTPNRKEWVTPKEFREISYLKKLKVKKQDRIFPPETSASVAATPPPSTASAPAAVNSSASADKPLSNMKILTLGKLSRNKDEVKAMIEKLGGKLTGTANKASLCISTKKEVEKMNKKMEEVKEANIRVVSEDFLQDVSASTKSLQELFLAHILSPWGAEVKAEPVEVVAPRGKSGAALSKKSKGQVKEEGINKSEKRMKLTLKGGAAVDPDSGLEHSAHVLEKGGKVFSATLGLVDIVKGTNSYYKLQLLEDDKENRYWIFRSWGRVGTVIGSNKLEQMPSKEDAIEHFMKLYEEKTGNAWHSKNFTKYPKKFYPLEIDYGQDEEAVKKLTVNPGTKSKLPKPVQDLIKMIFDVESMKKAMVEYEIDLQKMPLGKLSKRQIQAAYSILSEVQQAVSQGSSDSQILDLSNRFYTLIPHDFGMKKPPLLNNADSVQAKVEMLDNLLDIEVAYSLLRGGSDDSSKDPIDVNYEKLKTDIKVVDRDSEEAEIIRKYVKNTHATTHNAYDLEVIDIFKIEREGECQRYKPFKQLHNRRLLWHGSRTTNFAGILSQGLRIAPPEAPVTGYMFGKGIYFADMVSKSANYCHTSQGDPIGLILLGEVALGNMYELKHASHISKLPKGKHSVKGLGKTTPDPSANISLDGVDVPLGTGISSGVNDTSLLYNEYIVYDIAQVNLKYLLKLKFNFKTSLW

[9] = target: GFP-PARP7 (Homo sapiens (Human), UniProt Q7Z3E1); assay: PARP7 MARylation in GFP-PARP7 expressing HEK 293T cells (western blot); assay type: cell-based; details: read-out: EC50, decrease in PARP7 MARylation
Sequence of GFP-PARP7 (Q7Z3E1 whole entry): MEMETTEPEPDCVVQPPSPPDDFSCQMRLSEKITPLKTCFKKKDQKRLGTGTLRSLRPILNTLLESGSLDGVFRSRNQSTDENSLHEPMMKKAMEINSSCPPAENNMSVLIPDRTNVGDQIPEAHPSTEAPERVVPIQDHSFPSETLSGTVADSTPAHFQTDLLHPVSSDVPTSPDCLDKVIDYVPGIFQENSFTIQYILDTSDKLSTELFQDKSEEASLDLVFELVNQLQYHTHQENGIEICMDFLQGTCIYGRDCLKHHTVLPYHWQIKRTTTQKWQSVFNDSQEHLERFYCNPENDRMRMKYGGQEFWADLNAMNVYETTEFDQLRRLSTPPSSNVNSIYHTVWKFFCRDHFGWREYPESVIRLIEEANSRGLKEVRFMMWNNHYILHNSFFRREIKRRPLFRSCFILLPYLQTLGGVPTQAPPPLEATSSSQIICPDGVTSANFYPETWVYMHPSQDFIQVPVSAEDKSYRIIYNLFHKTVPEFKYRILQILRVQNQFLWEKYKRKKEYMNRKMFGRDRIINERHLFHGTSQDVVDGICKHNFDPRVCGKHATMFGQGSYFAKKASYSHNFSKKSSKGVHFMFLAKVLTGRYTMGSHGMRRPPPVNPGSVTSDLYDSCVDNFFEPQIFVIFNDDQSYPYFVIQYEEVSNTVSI

[10] = target: PARP3 (Homo sapiens (Human), UniProt Q9Y6F1); assay: PASTA biochemical PARP screening assay, PARP3
Procedure: For PARP3, PARP4bc, and PARP16, 200-350 ng of PARP was directly adhered to nickel coated 96-well plates for 60 min at 25° C. in PBR PARP3 was activated by Dnick 5'P as previously described (Langelier, Marie-France et al. Nucleic acids research vol. 42, 12 (2014): 7762-75.). The plate was washed three times with PBST, once with PBS, and once with PBR. Varying concentrations of inhibitor were pre-incubated with NAD^+ and added to the plate (final NAD^+ concentration: 100 μM for PARP3, PARP4bc; 400 μM for PARP16). The plate was incubated at 30° C. for 60 min, then washed three times with PBST before blocking with 5% Milk in PBST. […] The plate was then washed three times with PBST and once with PBS before developing as described previously.

[11] = target: GST-tagged PARP7 (Homo sapiens (Human), UniProt Q7Z3E1); assay: PASTA biochemical PARP screening assay, PARP7
Sequence of GST-tagged PARP7 (Q7Z3E1 whole entry): as above
Procedure: GST-tagged PARP7 was expressed and purified as previously described (Hutin et al., 2018). Proteins were quantified by an in-gel standard curve of Bovine Serum Albumin (Bio-Rad). For PARP7, 250 ng of PARP7 was adhered to glutathione coated 96-well plates (Thermo Scientific) in PBR for 60 min at RT. […] After washing, varying concentrations of each inhibitor was pre-incubated with 20 μM (2×) 6-a-NAD^+. The solution was added to the plate, diluted to 1× in PBR, and incubated at 30° C. for 60 min. […] The plate was subsequently washed three times in PBST and once in PBS before incubation with Strep-HRP (300 ng/μl BSA, 0.05 ng/μl Strep-HRP (Jackson ImmunoResearch), 1×PBS) for 30 min at RT. The plate was washed three time in PBST and once in PBS before development with QuantaRed Enhanced Chemifluorescent HRP Substrate as described previously.

[12] = system: HARA (human lung squamous cell carcinoma) cells; assay: Cell proliferation assay (CellTiter-Glo), HARA; assay type: cell-based; details: Homo sapiens, 144 h; 6 days, CellTiter-Glo; read-out: HARA GI50
[13] = system: AHR ligand-mediated gene transcription; assay: CYP1A1 mRNA by qPCR in mouse embryonic fibroblasts; assay type: cell-based; details: MEFs, with or without AHR agonist TCDD
Procedure: FIG. 2A provides CYP1A1 mRNA levels assessed by qPCR after treatment of wild type (WT) MEFs with increasing concentrations of Example 10 in the presence (gray bars) or absence (black bars) of the AHR agonist TCDD (1 nM). FIG. 2B provides the same as in FIG. 2A except with PARP7^−/− MEFs. FIG. 2C provides CYP1A1 mRNA levels assessed by qPCR after treatment of wild type (WT) MEFs with increasing concentrations of TCDD in the presence (gray bars) or absence (black bars) of 100 nM Example 10. FIG. 2D provides the same as in FIG. 2C, except with PARP7−/− MEFs.

[14] = target: PARP10 (Homo sapiens (Human), UniProt Q53GL7); assay: PASTA biochemical PARP screening assay, PARP10
[15] = system: IFN-β mRNA; assay: IFN-β mRNA by RT-qPCR in MEFs; assay type: cell-based, mouse; details: 100 nM alone
[16] = target: PARP12cat (Homo sapiens (Human), UniProt Q9H0J9); assay: PASTA biochemical PARP screening assay, PARP12cat
Sequence of PARP12cat (Q9H0J9 484-698): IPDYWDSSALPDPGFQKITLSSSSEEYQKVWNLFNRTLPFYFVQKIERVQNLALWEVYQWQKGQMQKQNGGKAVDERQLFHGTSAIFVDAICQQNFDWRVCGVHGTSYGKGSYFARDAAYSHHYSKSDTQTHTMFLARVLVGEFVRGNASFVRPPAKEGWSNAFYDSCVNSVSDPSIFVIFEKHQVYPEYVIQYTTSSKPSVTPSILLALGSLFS

[17] = system: NCI-H1373 (human lung adenocarcinoma) cells; assay: Cell proliferation assay (CellTiter-Glo), NCI-H1373; assay type: cell-based; details: Homo sapiens, NCI-H1373, 144 h; 6 days, CellTiter-Glo; read-out: NCI-H1373 GI50
[18] = system: AHR target gene CYP1A1; assay: CYP1A1 mRNA (AHR target gene) by RT-qPCR in MEFs; assay type: cell-based, mouse; details: WT MEFs
[19] = system: CT26 (mouse colon adenocarcinoma) cells; assay: Cell proliferation assay (CellTiter-Glo), CT26; assay type: cell-based; details: Mus musculus, CT26, 144 h, 6 days
[20] = target: PARP6 (Homo sapiens (Human), UniProt Q2NL67); assay: PASTA biochemical PARP screening assay, PARP6
Sequence of PARP6 (Q2NL67 whole entry, species assumed): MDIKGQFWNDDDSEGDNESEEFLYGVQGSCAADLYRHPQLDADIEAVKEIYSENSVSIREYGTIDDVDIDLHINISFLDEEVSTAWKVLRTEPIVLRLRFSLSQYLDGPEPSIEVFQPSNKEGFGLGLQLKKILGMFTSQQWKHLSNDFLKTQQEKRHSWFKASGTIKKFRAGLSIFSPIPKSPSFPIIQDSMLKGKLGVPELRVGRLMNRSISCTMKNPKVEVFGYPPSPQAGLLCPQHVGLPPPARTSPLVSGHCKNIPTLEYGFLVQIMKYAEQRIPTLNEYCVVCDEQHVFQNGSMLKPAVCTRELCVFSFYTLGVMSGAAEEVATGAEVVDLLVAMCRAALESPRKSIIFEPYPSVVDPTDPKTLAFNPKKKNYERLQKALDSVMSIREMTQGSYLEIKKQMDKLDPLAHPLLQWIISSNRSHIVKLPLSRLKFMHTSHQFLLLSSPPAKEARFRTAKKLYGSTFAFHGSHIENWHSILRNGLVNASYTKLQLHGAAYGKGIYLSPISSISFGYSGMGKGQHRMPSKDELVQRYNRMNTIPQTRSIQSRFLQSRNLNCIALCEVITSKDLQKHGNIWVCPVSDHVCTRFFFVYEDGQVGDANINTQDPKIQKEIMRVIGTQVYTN

[21] = target: PARP16 (Homo sapiens (Human), UniProt Q8N5Y8); assay: PASTA biochemical PARP screening assay, PARP16
[22] = system: NCI-H1373 cells; assay: Cell Titer-Glo viability, NCI-H1373; assay type: cell-based
Procedure: NCI-H1373 cells were seeded in a white 96-well plate (Corning) at a density of 1,000 cells per well. After 24 hours, cells were treated with PARP7 inhibitors and incubated at 37° C. for 6 days. Cell viability was assessed using CellTiter-Glo (CTG) 2.0 (Promega). After addition of the CTG reagent (following manufacturer protocol), the plate was incubated on an orbital shaker for 15 min (protected from light) at room temperature. Chemiluminescence was measured on a Spectra Max i3 (Molecular Devices), normalized to DMSO-treated wells, and IC50 values were calculated by non-linear regression (three-parameter fit) analysis using Prism 9 (GraphPad).

Sequence of PARP4bc (Q9UKK3 whole entry, looked up): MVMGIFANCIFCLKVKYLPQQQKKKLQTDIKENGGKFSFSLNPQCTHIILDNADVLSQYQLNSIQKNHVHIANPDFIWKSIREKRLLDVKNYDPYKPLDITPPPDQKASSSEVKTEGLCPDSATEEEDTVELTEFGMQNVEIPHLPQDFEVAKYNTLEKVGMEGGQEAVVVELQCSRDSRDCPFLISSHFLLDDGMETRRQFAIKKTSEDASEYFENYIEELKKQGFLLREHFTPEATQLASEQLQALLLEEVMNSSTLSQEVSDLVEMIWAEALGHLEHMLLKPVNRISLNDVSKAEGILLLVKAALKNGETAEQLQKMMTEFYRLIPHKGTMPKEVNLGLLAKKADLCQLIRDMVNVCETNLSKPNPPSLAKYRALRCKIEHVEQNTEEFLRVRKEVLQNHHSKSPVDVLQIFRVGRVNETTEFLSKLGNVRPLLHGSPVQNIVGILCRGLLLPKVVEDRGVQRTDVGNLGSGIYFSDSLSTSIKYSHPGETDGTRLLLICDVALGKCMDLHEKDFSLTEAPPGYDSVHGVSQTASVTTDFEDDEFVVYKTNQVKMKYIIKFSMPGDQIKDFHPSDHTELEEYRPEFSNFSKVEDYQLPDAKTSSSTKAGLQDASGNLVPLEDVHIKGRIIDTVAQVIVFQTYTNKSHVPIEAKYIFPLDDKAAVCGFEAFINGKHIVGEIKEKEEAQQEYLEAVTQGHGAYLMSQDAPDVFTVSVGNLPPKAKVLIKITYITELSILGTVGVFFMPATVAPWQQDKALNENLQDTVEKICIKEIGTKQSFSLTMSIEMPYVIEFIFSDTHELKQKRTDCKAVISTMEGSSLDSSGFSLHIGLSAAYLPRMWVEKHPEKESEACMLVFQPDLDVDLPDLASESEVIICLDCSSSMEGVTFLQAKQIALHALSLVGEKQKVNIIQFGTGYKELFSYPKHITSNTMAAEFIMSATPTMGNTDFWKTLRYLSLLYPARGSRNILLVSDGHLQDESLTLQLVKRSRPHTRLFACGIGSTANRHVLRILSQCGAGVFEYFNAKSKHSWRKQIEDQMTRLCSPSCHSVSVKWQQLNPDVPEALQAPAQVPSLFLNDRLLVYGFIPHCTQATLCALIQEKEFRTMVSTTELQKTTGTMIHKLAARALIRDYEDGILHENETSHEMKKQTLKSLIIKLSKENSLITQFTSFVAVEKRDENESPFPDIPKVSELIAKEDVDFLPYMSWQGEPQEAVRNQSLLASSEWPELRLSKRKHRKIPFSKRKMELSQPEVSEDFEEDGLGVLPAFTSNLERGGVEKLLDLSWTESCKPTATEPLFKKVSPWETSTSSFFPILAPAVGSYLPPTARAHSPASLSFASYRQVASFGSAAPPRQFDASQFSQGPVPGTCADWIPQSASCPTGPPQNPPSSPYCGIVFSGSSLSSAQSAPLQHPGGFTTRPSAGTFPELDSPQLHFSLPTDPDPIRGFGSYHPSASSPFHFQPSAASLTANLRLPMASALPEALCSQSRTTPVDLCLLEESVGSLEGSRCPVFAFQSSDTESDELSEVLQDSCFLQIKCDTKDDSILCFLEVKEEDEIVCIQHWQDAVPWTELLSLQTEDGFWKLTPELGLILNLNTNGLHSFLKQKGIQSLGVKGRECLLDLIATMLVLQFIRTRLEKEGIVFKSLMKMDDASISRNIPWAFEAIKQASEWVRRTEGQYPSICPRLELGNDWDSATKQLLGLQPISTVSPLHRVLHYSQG

With `CC#Cc1ccc2c(=O)[nH]nc(Cc3ccc(F)c(C(=O)N4CCN(c5ccc(C#N)cn5)CC4)c3)c2c1` [Example 10, 6-(4-(2-Fluoro-5-((4-oxo-7-(prop-1-ynyl)-3,4-dihydrophthalazin-1-yl)methyl)benzoyl)piperazin-1-yl)nicotinonitrile] the IC50 [1] was 134 nM, the IC50 [2] was over 3000 nM and the IC50 [3] was 770 nM. The IC50 [4] was over 3000 nM, the IC50 [5] was 1020 nM and the IC50 [6] was 100 to 500 nM. For the same compound, the IC50 [7] was 1040 nM, the IC50 ([8]; read-out: IC50 PARP1) was over 3000 nM and the IC50 ([8]; read-out: does not inhibit PARP1 up to) was over 3000 nM. The EC50 [9] was 8 nM, the IC50 [10] was over 3000 nM and the IC50 [11] was 13.7 nM. The “selectivity for PARP7 over PARP2” value [11] was about 75 fold, the “selectivity for PARP7 over PARP10 and PARP11” value [11] was about 10 fold and the “selectivity for PARP7 over most PARP family members beyond PARP1 and PARP2” value [11] was over 50 fold. For the same compound, the GI50 [12] was 1000 to 5000 nM, the “AHR ligand-mediated gene transcription (CYP1A1 mRNA)” value [13] was “derepresses AHR ligand-mediated gene transcription” and the IC50 [14] was 179 nM. For the same compound, the “increase in IFN-β mRNA” value [15] was 3 fold, the IC50 [16] was 762 nM and the GI50 [17] was under 100 nM. The “CYP1A1 mRNA levels” value ([18]; in the absence of TCDD) was “had no effect on CYP1A1 mRNA levels”, the “CYP1A1 mRNA levels” value ([18]; in the presence of 1 nM TCDD) was “dramatically increased CYP1A1 mRNA levels” and the GI50 [19] was over 5000 nM. The IC50 [20] was 775 nM, the IC50 [21] was 1060 nM and the “less potent than RBN-2397 on NCI-H1373” value [22] was about 6 fold. For the same compound, the EC50 ([22]; Homo sapiens, NCI-H1373, 144 h, 6 days, CellTiter-Glo) was 104 nM.
